Source: patent US20050208124A1, “Drugs containing riboflavin-type compounds” (priority 2003, published 2005)
Like-named read-outs stand apart in the source and are kept apart here.

Experiments:
SEB-induced shock mice = conditions: mouse, in vivo
TNF-α-induced shock mice = assay: TNF-α-induced shock mouse model: survival; conditions: human TNF-α + D-galactosamine i.p., 20 mg/kg i.v. immediately after, 7 days
HWEC cells = assay: IL-8 production in endothelial cells under high glucose load; type: cell-based, human; conditions: 30 mM glucose load, 2 h, glucose alone 1196 pg/mL
AAPH-intoxication mice = assay: AAPH-intoxication mouse model: survival; conditions: male ICR mice, AAPH 125 mg/kg i.p., 7 days
[1] = tested on: TNF-α-stimulated mouse peritoneal macrophage; assay: IL-6 production from TNF-α-stimulated mouse peritoneal macrophage; type: cell-based; conditions: 10 ng/mL TNF-α, 24 h
LPS-induced shock mice = conditions: male ICR mice, LPS 12 mg/kg i.v., 20 mg/kg i.v. 6 h after LPS
[2] = tested on: human vascular endothelial cells (HUEC); assay: Active oxygen production in endothelial cells under high glucose load; type: cell-based; conditions: 30 mM glucose load, control 91.2, glucose alone 140.5
Procedure: Next, glucose was added to a glucose concentration of 30 mM on each plate, and the cells were CO2 incubated for 1 hour at 37° C. After completion of culture the cells were collected and intracellular active oxygen was measured by FACS Calibur (Flow Cytometry System; Becton Dickinson Japan) using […] (intracellular active oxygen measurement kit; […] Pharma).

**Q.** Which results are given for `Cc1cc2nc3c(=O)[nH]c(=O)nc-3n(C[C@H](O)[C@H](O)[C@H](O)COP(=O)([O-])O)c2cc1C.[Na+]` [5′-FMN-Na, riboflavin-5′-phosphate sodium ester]?
**A.** plasma IL-6 concentration (SEB-induced shock mice): suppression effect; plasma INF-γ concentration (SEB-induced shock mice): suppression effect; plasma MIP-2 concentration (SEB-induced shock mice): suppression effect; Survival number (TNF-α-induced shock mice; female ICR mice): 7/10; Survival rate (%) (TNF-α-induced shock mice; female ICR mice): 70%; Survival number (TNF-α-induced shock mice; male BALB/c mice): 6/10; Survival rate (%) (TNF-α-induced shock mice; male BALB/c mice, P < 0.05 vs. Saline, 20 mg/kg): 60%; IL-8 concentration in the medium (HWEC cells; 6.25 μg/mL): 297 pg/mL; IL-8 concentration in the medium (HWEC cells; 25 μg/mL): 168 pg/mL; Survival number (AAPH-intoxication mice; 20 mg/kg i.p. (−24 h, 0)): 7/10; Survival rate (%) (AAPH-intoxication mice; 20 mg/kg i.p. (−24 h, 0), P < 0.05 vs. Saline): 70%; Survival number (AAPH-intoxication mice; 20 mg/kg i.v. (−24 h, 0, +1 h)): 6/10; Survival rate (%) (AAPH-intoxication mice; 20 mg/kg i.v. (−24 h, 0, +1 h)): 60%; TNF-α-induced IL-6 production ([1]; 1.56 μg/mL 5′-FMN-Na): suppressed; TNF-α-induced IL-6 production ([1]; 25 μg/mL 5′-FMN-Na): suppressed; plasma GM-CSF concentration (LPS-induced shock mice; 21 h after LPS (second peak)): tended to depress; plasma MIP-2 concentration (LPS-induced shock mice; after 9 h, maintained after 21 h): had declined; plasma IL-1β concentration (LPS-induced shock mice; between 9 and 12 h after LPS, vs control): decreased rapidly; plasma NO level (total NO2 and NO3) (LPS-induced shock mice; between 9 and 18 h): no suppression effect; plasma INF-γ concentration (LPS-induced shock mice; between 9 and 18 h after LPS, vs control): declined rapidly; plasma NO level (total NO2 and NO3) (LPS-induced shock mice; between 21 and 24 h): had a suppression effect; plasma IL-6 concentration (LPS-induced shock mice; maintained after 21 h, vs control): rapid decline; plasma MCP-1 concentration (LPS-induced shock mice; maintained until 21 h after LPS): depressed; plasma IL-10 concentration (LPS-induced shock mice; second peak (21 h after LPS)): depressed; plasma TNF-α concentration (LPS-induced shock mice; second peak (21 h after LPS)): depressed; fluorescent strength (mean fluorescence), intracellular active oxygen ([2]; 0.1 μg/mL): 114.2; fluorescent strength (mean fluorescence), intracellular active oxygen ([2]; 0.39 μg/mL): 125.0; fluorescent strength (mean fluorescence), intracellular active oxygen ([2]; 1.56 μg/mL): 111.9; fluorescent strength (mean fluorescence), intracellular active oxygen ([2]; 6.25 μg/mL): 89.5
